The values that follow come from US20220324862A1, “PYRIDOPYRIMIDINONE COMPOUNDS” (Acerand Therapeutics (USA) Limited, priority 2021, published 2022).

The term IC50 denotes the concentration needed to halve the response being measured.

The subject of assay [1] is cellular pERK in NCI-H1975 cells (EGFR/L858R-T790M). The assay is described as follows: pERK Potency Assay. Type of assay: cell-based. The settings on record: Homo sapiens, 1 hour incubation, Western blot, read-out: IC50 value, cellular pERK level. The text has this:
The purpose of this assay is to measure the ability of test compounds to inhibit SOS1 function in cells. SOS1 activates RAS proteins by catalyzing the conversion of RAS-GDP to RAS-GTP in response to receptor tyrosine kinase activation. Activation of RAS induces a sequence of cellular signaling events that results in increased phosphorylation of ERK at Threonine 202 and Tyrosine 204 (pERK). The procedure described below measured the level of cellular pERK in response to test compounds in NCI-H1975 cells (EGFR/L858R-T790M).
NCI-H1975 cells were grown and maintained using media and procedures recommended by the ATCC. On the day prior to compound addition, cells were plated in 24-well cell culture plates (0.9 ml/well) and grown overnight in a 37° C., 5% CO2 incubator. Test compounds were prepared with 3-fold serial dilutions in DMSO, with a top concentration of 10 mM. On the day of the assay, 100 uL of each test compound diluted at 1:100 in media was added to each well of cell culture plate with final concentrations of the compound spanning 0.5 nM to 10 uM. After the compound was added, the cells were incubated for 1 hour at 37° C., 5% CO2. Following incubation, culture medium was removed, and the cells were washed once with phosphate buffered saline and lysed with lysis buffer (20 mM Tris-HCl, pH 7.5, 150 mM NaCl, 1 mM EDTA, 1 mM EGTA, 0.8% NP-40 plus 2× protease and phosphatase inhibitors). Cellular pERK level was determined using the Western blot analysis and quantified with Liqor software. Signal from Western blot was plotted and IC50 values were determined by fitting a 4-parameter sigmoidal concentration response model.
(Immunoblotting shows a protein as a band on a membrane.)

For a further assay, the system named is NCI-H1975 cells. In words: 3D cell proliferation assay. Type of assay: cell-based. To be noted: Homo sapiens, ultra low attachment plate, 96 hours, 3D CTG. The method, then: This assay supports the molecular mode of action of compounds. Low IC50 values are indicative of high potency of the SOS1 inhibition. […] This supports the molecular mode of action of the SOS1 inhibitors as selectively targeting cancer cells dependent on receptor tyrosine kinase-RAS/SOS1-family protein function. Cell proliferation assays were performed in three-dimensional (3D) anchorage-independent conditions in 96 well ultra-low attachment plate with the following human cell lines:
NCI-H1975: human non-small cell lung cancer (NSCLC) with wild type KRAS and EGFR L858R/T790M mutation;
Cell lines were purchased from the American Type Culture Collection (ATCC), NCI, or European Collection of Authenticated Cell Cultures (ECACC). All cell lines were maintained in RPMI-1640 or DMEM with 10% heat inactivated fetal bovine serum.
Cells growing in log phase were detached with Gibco™ TrypLE™ Express Enzyme and plated in 96 well ultra low attachment plate at 15000 to 20000 cells/well in 100 μl of media. After overnight incubation at 37° C. and 5% CO2, the cells were treated with compounds (50 μL/well) at the final concentrations spanning 1 nM to 20 μM. Cells were incubated at 37° C., 5% CO2 and 95% humidity incubator for 96 hours. At the end of incubation, a 3D CTG reagent from Promega was added to each well according to vendors recommendation and mixed for 10 minutes in dark. The luminescence signals were determined using Biotek plate reader. The data was fitted using a sigmoidal curve analysis program (GraphPAD Prism) with variable hill slope.

Take `C#C[C@@H](Nc1nc(C)nc2cc(=O)n(C3(C)CCN(C(C)=O)CC3)cc12)c1cccc(C(F)(F)F)c1C` [Compound 33, (R)-6-(1-acetyl-4-methylpiperidin-4-yl)-2-methyl-4-((1-(2-methyl-3-(trifluoromethyl)phenyl)prop-2-yn-1-yl)amino)pyrido[4,3-d]pyrimidin-7(6H)-one]: the IC50 (in assay [1]; in the assay on NCI-H1975 cells) was < 100 nM each time.
